25 molecules from patent publication US20260207602A1, “EGFR INHIBITORS” (Blueprint Medicines Corporation, priority 2022, published 2026) can be followed below.

SMILES strings stand for the structures. Where only a bound is given, the exact number is not on record here.

The target of one assay is T1, EGFR L858R (Homo sapiens, UniProt P00533, L858R).
T1 construct: purchased SignalChem E10-122BG
In words: Biochemical EGFR inhibition assay (Caliper mobility shift), EGFR L858R. The following applies: biochemical Caliper mobility shift assay, EGFR L858R enzyme; read-out: Enz EGFR L858R IC50. A digest of the protocol:
(§1)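 Kinase activity measured as phosphorylation of 2.5 µM 5-FAM-labelled peptide substrate in 100 mM HEPES pH 7.5, 10 mM MgCl2, 0.015% Brij-35, 1 mM DTT, 1.0% DMSO, at 1.0 mM ATP or ATP Km. Run at 25 °C to 10–20% conversion, stopped with EDTA; product resolved by mobility shift, apparent IC50 from percent activity vs log concentration.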

A further assay has as its target T2, EGFR (d746-750) (Homo sapiens, UniProt P00533, DEL746-750).
T2 construct: purchased SignalChem E10-122JG
In words: Biochemical EGFR inhibition assay (Caliper mobility shift), EGFR (d746-750). Particulars: biochemical Caliper mobility shift assay, EGFR Exon 19-del enzyme; read-out: Enz EGFR Exon 19-del IC50. A digest of the protocol: as §1

The target in assay [1] is intracellular phosphorylation of EGFR (Tyr1068) in PC-9 cells (Homo sapiens, UniProt P00533, DEL746-750). In words: PC-9 pEGFR AlphaLISA assay. It is filed as cell-based. Particulars: 4 hours incubation, read-out: Phos EGFR PC9 IC50. A digest of the protocol: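 PC-9 cells (EGFR del746-750) in phenol-free DMEM/10% FBS, adhered overnight, then exposed to 10-point 4-fold compound dilutions for 4 h at 37 °C. Lysates assayed for pEGFR Tyr1068 by AlphaLISA SureFire Ultra; IC50 from percent pEGFR inhibition vs log concentration.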
intracellular phosphorylation of EGFR (Tyr1068) in PC-9 cells, sequence (P00533 with tags, fused parts or gaps DEL746-750): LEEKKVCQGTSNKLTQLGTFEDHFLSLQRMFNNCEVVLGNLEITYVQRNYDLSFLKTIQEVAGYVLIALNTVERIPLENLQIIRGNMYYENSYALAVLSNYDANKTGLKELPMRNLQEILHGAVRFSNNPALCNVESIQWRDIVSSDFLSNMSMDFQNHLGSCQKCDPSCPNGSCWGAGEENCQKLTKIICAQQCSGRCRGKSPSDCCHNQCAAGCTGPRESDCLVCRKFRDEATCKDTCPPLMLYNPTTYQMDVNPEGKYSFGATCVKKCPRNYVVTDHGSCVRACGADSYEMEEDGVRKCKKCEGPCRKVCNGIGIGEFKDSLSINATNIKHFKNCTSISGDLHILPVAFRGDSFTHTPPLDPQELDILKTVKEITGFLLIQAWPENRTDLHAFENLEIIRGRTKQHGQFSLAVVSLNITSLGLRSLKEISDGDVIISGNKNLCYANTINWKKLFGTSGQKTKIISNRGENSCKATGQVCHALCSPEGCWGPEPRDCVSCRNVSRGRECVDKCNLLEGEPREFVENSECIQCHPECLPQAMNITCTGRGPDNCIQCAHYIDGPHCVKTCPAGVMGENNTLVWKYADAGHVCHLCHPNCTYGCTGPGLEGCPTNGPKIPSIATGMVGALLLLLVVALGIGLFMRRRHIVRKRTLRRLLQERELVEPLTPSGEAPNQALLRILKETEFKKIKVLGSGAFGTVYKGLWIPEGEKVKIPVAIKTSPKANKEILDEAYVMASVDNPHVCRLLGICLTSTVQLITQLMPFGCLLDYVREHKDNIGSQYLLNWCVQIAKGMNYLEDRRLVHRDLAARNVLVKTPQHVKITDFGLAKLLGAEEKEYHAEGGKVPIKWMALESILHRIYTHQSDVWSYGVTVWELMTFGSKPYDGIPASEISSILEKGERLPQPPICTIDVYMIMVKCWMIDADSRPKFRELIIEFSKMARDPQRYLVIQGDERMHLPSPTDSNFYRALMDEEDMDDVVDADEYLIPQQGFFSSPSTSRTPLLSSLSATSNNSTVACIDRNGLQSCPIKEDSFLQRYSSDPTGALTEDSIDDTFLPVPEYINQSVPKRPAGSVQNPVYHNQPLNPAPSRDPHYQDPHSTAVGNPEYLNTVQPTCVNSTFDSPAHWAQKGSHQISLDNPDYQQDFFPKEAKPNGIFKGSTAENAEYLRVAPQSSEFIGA
On the technique in general: Alpha assays give light when donor and acceptor beads are brought close together.

T1 sequence (P00533 25-1210 L858R): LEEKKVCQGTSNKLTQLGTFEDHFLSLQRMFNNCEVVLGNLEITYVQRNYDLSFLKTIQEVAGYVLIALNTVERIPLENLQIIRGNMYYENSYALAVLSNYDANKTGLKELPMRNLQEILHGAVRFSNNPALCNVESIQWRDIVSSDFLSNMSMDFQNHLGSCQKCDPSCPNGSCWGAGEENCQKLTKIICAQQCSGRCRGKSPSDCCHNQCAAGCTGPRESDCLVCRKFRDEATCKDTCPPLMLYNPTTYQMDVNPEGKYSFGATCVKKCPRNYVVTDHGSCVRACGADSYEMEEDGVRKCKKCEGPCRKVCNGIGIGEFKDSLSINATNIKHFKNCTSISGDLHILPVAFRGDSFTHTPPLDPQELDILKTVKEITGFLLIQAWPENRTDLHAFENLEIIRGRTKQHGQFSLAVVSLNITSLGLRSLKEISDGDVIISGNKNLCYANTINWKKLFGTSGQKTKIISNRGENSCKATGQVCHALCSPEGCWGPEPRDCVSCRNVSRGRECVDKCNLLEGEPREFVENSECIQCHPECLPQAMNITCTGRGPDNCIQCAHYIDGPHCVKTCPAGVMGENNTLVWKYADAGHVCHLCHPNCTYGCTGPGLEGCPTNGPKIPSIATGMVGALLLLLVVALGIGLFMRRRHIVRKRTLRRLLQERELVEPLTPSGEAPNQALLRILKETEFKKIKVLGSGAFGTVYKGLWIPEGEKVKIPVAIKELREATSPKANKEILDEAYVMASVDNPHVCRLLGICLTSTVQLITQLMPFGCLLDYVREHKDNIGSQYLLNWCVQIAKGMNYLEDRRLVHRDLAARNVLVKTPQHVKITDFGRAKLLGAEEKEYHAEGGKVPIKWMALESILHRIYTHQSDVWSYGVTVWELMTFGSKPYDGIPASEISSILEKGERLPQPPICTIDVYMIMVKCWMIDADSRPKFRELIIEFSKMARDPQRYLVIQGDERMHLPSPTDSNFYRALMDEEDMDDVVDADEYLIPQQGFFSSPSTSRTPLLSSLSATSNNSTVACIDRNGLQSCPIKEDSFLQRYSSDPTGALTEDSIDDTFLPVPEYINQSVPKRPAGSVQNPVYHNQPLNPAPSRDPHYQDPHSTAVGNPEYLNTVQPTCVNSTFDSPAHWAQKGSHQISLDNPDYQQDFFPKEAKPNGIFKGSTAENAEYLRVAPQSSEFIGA
T2 sequence (P00533 with tags, fused parts or gaps DEL746-750 limits assumed): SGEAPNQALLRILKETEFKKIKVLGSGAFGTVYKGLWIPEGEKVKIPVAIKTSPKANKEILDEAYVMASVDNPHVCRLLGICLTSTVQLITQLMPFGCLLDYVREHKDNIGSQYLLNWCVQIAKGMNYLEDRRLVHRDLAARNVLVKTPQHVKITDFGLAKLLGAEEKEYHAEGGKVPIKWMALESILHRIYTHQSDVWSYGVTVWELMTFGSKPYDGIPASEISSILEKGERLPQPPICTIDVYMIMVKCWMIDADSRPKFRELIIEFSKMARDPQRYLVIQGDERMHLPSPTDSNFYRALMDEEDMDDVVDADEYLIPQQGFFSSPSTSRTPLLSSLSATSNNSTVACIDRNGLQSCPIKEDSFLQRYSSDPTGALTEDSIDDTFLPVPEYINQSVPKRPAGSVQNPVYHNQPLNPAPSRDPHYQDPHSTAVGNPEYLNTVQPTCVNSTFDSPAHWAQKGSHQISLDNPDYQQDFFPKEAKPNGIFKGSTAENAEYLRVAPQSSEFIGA

In general, IC50 refers to the concentration that gives 50% inhibition. `COc1nn(C)cc1-c1cc(OC2CCN(C)CC2(F)F)c2c(Nc3ccc4ncsc4c3)ncnc2c1` (stereo not drawn) [Example 1, N-(5-((3,3-difluoro-1-methylpiperidin-4-yl)oxy)-7-(3-methoxy-1-methyl-1H-pyrazol-4-yl)quinazolin-4-yl)benzo[d]thiazol-6-amine]: the IC50 (at EGFR L858R; at EGFR (d746-750); in assay [1]) was ≤ 10 nM in each case.

On to `CN1CCC[C@H](Oc2cc(-c3cn(C)nn3)cc3ncnc(Nc4ccc5ncsc5c4)c23)C1` [Example 247, (S)-N-(7-(1-methyl-1H-1,2,3-triazol-4-yl)-5-((1-methylpiperidin-3-yl)oxy)quinazolin-4-yl)benzo[d]thiazol-6-amine], for which the IC50 was ≤ 10 nM on EGFR L858R, ≤ 10 nM on EGFR (d746-750) and 10.1 to 50 nM in assay [1].

Regarding `Cn1cc(-c2cc(O[C@@H]3CC[C@H]3O)c3c(Nc4ccc5ncsc5c4)ncnc3c2)cn1` (single isomer, unassigned) [Example A53], the IC50 (on EGFR L858R; at EGFR (d746-750); in assay [1]) was ≤ 10 nM in each case.

Take `C[C@@H](CN(C)C)Oc1cc(-c2cnn(C)c2)cc2ncnc(Nc3ccc4ncsc4c3)c12` (single isomer, unassigned) [Example 159, (S)—N-(5-((1-(dimethylamino)propan-2-yl)oxy)-7-(1-methyl-1H-pyrazol-4-yl)quinazolin-4-yl)benzo[d]thiazol-6-amine or (R)—N-(5-((1-(dimethylamino)propan-2-yl)oxy)-7-(1-methyl-1H-pyrazol-4-yl)quinazolin-4-yl)benzo[d]thiazol-6-amine]: the values for the IC50 (on EGFR L858R; on EGFR (d746-750); in assay [1]) were 10.1 to 50 nM, ≤ 10 nM and 10.1 to 50 nM, respectively.

For `CC(Oc1cc(-c2cn(C)nc2OC(F)F)cc2ncnc(Nc3ccc4ncsc4c3)c12)C1COC1` (single isomer, unassigned) [Example 172], the IC50 was ≤ 10 nM at EGFR L858R, ≤ 10 nM at EGFR (d746-750) and 10.1 to 50 nM in assay [1].

On to `COc1nn(C)cc1-c1cc(O[C@H]2CCNC[C@@H]2F)c2c(Nc3ccc4ncsc4c3)ncnc2c1` (single isomer, unassigned) [Example 360], for which the IC50 (at EGFR L858R; on EGFR (d746-750); in assay [1]) was ≤ 10 nM in each case.

In the case of `C[C@@H](Oc1cc(-c2cnn(C)c2)cc2ncnc(Nc3ccc4ncsc4c3)c12)C(F)(F)F` [Example 67, (R)-N-(7-(1-methyl-1H-pyrazol-4-yl)-5-((1,1,1-trifluoropropan-2-yl)oxy)quinazolin-4-yl)benzo[d]thiazol-6-amine], the values for the IC50 (on EGFR L858R; on EGFR (d746-750); in assay [1]) were ≤ 10 nM, ≤ 10 nM and 10.1 to 50 nM, respectively.

Consider `COc1cn(C)nc1-c1cc(OC2CCN(C)CC2)c2c(Nc3ccc4ncsc4c3)ncnc2c1` [Example 131, N-(7-(4-methoxy-1-methyl-1H-pyrazol-3-yl)-5-((1-methylpiperidin-4-yl)oxy)quinazolin-4-yl)benzo[d]thiazol-6-amine], for which the results for the 50% inhibitory concentration (IC50) (on EGFR L858R; at EGFR (d746-750); in assay [1]) were 10.1 to 50 nM, ≤ 10 nM and 10.1 to 50 nM, respectively.

Take `COc1cc2c(Nc3ccc4ncsc4c3)ncnc2cc1-c1cnn(C)c1` [Example 263, N-(6-methoxy-7-(1-methyl-1H-pyrazol-4-yl)quinazolin-4-yl)benzo[d]thiazol-6-amine]: the half-inhibitory concentration (IC50) (at EGFR L858R; at EGFR (d746-750); in assay [1]) was ≤ 10 nM throughout.

With `C[C@@H](CN(C)C)Oc1cc(N2CCN(C)CC2)cc2ncnc(Nc3ccc4ncsc4c3)c12` (single isomer, unassigned) [Example 116], the IC50 at EGFR L858R is > 50.1 nM; on EGFR (d746-750), 10.1 to 50 nM; in assay [1] it was > 50.1 nM.

As for `C[C@@H](Oc1cc(-c2cnn(C)c2)cc2ncnc(Nc3ccc4ncsc4c3F)c12)[C@H]1CCOC1` (single isomer, unassigned) [Example 88], the IC50 (on EGFR L858R; on EGFR (d746-750); in assay [1]) was ≤ 10 nM throughout.

On to `C[C@@H]1CN(C)CCN1c1cc(O[C@H](C)C2COC2)c2c(Nc3ccc4ncsc4c3F)ncnc2c1` (single isomer, unassigned) [Example 107, N-(7-((R)-2,4-dimethylpiperazin-1-yl)-5-((R)-1-(oxetan-3-yl)ethoxy)quinazolin-4-yl)-7-fluorobenzo[d]thiazol-6-amine or N-(7-((R)-2,4-dimethylpiperazin-1-yl)-5-((S)-1-(oxetan-3-yl)ethoxy)quinazolin-4-yl)-7-fluorobenzo[d]thiazol-6-amine], for which the IC50 on EGFR L858R was 10.1 to 50 nM; at EGFR (d746-750) it was ≤ 10 nM; in assay [1] it was 10.1 to 50 nM.

As for `C[C@H](CN(C)C)Oc1cc(N2CCOCC2)cc2ncnc(Nc3ccc4ncsc4c3F)c12` [Example 183, (R)-N-(5-((1-(dimethylamino)propan-2-yl)oxy)-7-morpholinoquinazolin-4-yl)-7-fluorobenzo[d]thiazol-6-amine], the values for the half-maximal inhibitory concentration (IC50) (on EGFR L858R; on EGFR (d746-750); in assay [1]) were 10.1 to 50 nM, ≤ 10 nM and 10.1 to 50 nM, respectively.

Consider `Cn1cc(-c2cc(O[C@H]3CC[C@@H](O)CC3)c3c(Nc4ccc5ncsc5c4)ncnc3c2)cn1` [Example 11, (1s,4s)-4-((4-(benzo[d]thiazol-6-ylamino)-7-(1-methyl-1H-pyrazol-4-yl)quinazolin-5-yl)oxy)cyclohexan-1-ol], for which the IC50 (at EGFR L858R; at EGFR (d746-750); in assay [1]) was ≤ 10 nM each time.

Consider `CN1C[C@H](F)C[C@@H](Oc2cc(-c3cnn(C)c3)cc3ncnc(Nc4ccc5ncsc5c4)c23)C1` (single isomer, unassigned) [Example 333], for which the IC50 at EGFR L858R is ≤ 10 nM; on EGFR (d746-750), ≤ 10 nM; in assay [1], 10.1 to 50 nM.

For `C[C@@H]1OC[C@H]1Oc1cc(-c2cnn(C)c2)cc2ncnc(Nc3ccc4ncsc4c3)c12` (racemic) [Example 10, trans-N-(7-(1-methyl-1H-pyrazol-4-yl)-5-(((2S,3S)-2-methyloxetan-3-yl)oxy)quinazolin-4-yl)benzo[d]thiazol-6-amine], the values for the 50% inhibitory concentration (IC50) (on EGFR L858R; on EGFR (d746-750); in assay [1]) were ≤ 10 nM, ≤ 10 nM and 10.1 to 50 nM, respectively.

For `COC[C@H](CN(C)C)Oc1cc(-c2cnn(C)c2)cc2ncnc(Nc3ccc4ncsc4c3)c12` [Example 141, (S)-N-(5-((1-(dimethylamino)-3-methoxypropan-2-yl)oxy)-7-(1-methyl-1H-pyrazol-4-yl)quinazolin-4-yl)benzo[d]thiazol-6-amine], the half-inhibitory concentration (IC50) was 10.1 to 50 nM on EGFR L858R, ≤ 10 nM at EGFR (d746-750) and 10.1 to 50 nM in assay [1].

In the case of `CN1CC[C@@H](F)[C@@H](Oc2cc(-c3cnn(C)c3)cc3ncnc(Nc4ccc5ncsc5c4)c23)C1` (single isomer, unassigned) [Example 161], the IC50 (at EGFR L858R; at EGFR (d746-750); in assay [1]) was ≤ 10 nM each time.

For the molecule `CCN1CCN(C(=O)Nc2cc3c(Nc4ccc5ncsc5c4F)ncnc3cc2-c2ccn(C)n2)[C@@H](C)C1` [Example 398, (S)-4-ethyl-N-(4-((7-fluorobenzo[d]thiazol-6-yl)amino)-7-(1-methyl-1H-pyrazol-3-yl)quinazolin-6-yl)-2-methylpiperazine-1-carboxamide], the IC50 (at EGFR L858R; on EGFR (d746-750); in assay [1]) was ≤ 10 nM each time.

On to `COc1cn(C)nc1-c1cc(O[C@H]2CCCN(C)C2)c2c(Nc3ccc4ncsc4c3F)ncnc2c1` [Example 246, (S)-7-fluoro-N-(7-(4-methoxy-1-methyl-1H-pyrazol-3-yl)-5-((1-methylpiperidin-3-yl)oxy)quinazolin-4-yl)benzo[d]thiazol-6-amine], for which the IC50 at EGFR L858R was ≤ 10 nM; at EGFR (d746-750), ≤ 10 nM; in assay [1], 10.1 to 50 nM.

Consider `COc1cc2ncnc(Nc3ccc4ncsc4c3)c2cc1-c1cnn([C@@H]2CCNC[C@@H]2F)c1` (racemic) [Example 164, cis-N-(6-(1-((3R,4S)-3-fluoropiperidin-4-yl)-1H-pyrazol-4-yl)-7-methoxyquinazolin-4-yl)benzo[d]thiazol-6-amine], for which the IC50 was ≤ 10 nM on EGFR L858R, ≤ 10 nM on EGFR (d746-750) and 10.1 to 50 nM in assay [1].

`Cn1cc(-c2cc(OC[C@]34COC[C@H]3C4)c3c(Nc4ccc5ncsc5c4)ncnc3c2)cn1` (single isomer, unassigned) [Example 147]: the IC50 on EGFR L858R was 10.1 to 50 nM; on EGFR (d746-750) it was ≤ 10 nM; in assay [1], 10.1 to 50 nM.

As for `CCC(=O)N1CCC(Oc2cc3c(Nc4ccc5ncsc5c4)ncnc3cc2OC)CC1` [Example 260, 1-(4-((4-(benzo[d]thiazol-6-ylamino)-7-methoxyquinazolin-6-yl)oxy)piperidin-1-yl)propan-1-one], the IC50 is ≤ 10 nM on EGFR L858R, ≤ 10 nM at EGFR (d746-750) and 10.1 to 50 nM in assay [1].

Take `Cn1cc(-c2cc(OCC(=O)N3CCOCC3)c3c(Nc4ccc5ncsc5c4)ncnc3c2)cn1` [Example 273, 2-((4-(benzo[d]thiazol-6-ylamino)-7-(1-methyl-1H-pyrazol-4-yl)quinazolin-5-yl)oxy)-1-morpholinoethan-1-one]: the IC50 (at EGFR L858R; on EGFR (d746-750); in assay [1]) was ≤ 10 nM each time.

As for `Cn1cc(-c2cc(OC3CCOCC3)c3c(Nc4ccc5ncsc5c4)ncnc3c2)cn1` [Example 15, N-(7-(1-methyl-1H-pyrazol-4-yl)-5-((tetrahydro-2H-pyran-4-yl)oxy)quinazolin-4-yl)benzo[d]thiazol-6-amine], the 50% inhibitory concentration (IC50) (at EGFR L858R; at EGFR (d746-750); in assay [1]) was ≤ 10 nM each time.
